Measurements published in publication PMC3111206, “Phase I study of PD 0332991, a cyclin-dependent kinase inhibitor, administered in 3-week cycles (Schedule 2/1)” (British Journal of Cancer, 2011).

How the values were obtained:
platelets = test: Pharmacodynamic Emax modelling of change in platelets vs individual AUC; format: in vivo; settings: Homo sapiens, Platelet; cycle 1, vs individual AUC, 30 patients; s.e. 16.9; 18.3% CV; read-out: Emax for platelets (change from baseline)
Method: To document the course of changes in absolute neutrophil count (ANC) and platelets over time during the first two cycles of treatment, an exploratory analysis of data available from the weekly safety laboratory tests was carried out. Possible relationships between PD 0332991 exposure and changes in (i) ANC and (ii) platelets were assessed further by fitting a simple model (without baseline) to determine the maximum […] (Emax).

[1] = Safety assessment: adverse events and haematological toxicity graded by NCI CTCAE v3.0; format: in vivo, human
Method: Safety was assessed at baseline, at regular intervals throughout the study, and within 1 week following treatment discontinuation by recording AEs, haematological and biochemical parameters, and physical status (including ECOG performance status). Adverse event severity was graded using the National Cancer Institute Common Terminology Criteria for Adverse Events, version 3.0 ([Trotti et al, 2003]). Triplicate electrocardiograms (ECGs) ∼2 min apart were taken at baseline, 3 h post-dose on days 1, 8 and 15 of cycle 1, and on day 15 of subsequent cycles for up to six cycles.

[2] = 200 mg QD, cycle 1, 20 patients
[3] = After cycle 1, all cohorts combined (N=33)
[4] = Cycle 1, all cohorts combined (N=33)

In the case of `CC(=O)c1c(C)c2cnc(Nc3ccc(N4CCNCC4)cn3)nc2n(C2CCCC2)c1=O` [PD 0332991], the Emax (platelets) is reported as 92.2%, the “Neutropenia, NCICTCAE Grade 0” value [1, 2] is reported as 11 n and the “Neutropenia, NCICTCAE Grade 1” value [1, 2] is reported as 0 n. For the same molecule, the “Neutropenia, NCICTCAE Grade 2” value [1, 2] was 3 n, the “Neutropenia, NCICTCAE Grade 3” value [1, 2] was 6 n and the “Neutropenia, NCICTCAE Grade 4” value [1, 2] was 0 n. For the same molecule, the “Patients with treatment interrupted following treatment-related AEs” value ([1]; 200 mg QD, during cycle 1) was “eight”, the “Neutropenia, NCICTCAE Grade 0” value ([1]; 225 mg QD, cycle 1, 6 patients) was 3 n and the “Neutropenia, NCICTCAE Grade 1” value ([1]; 225 mg QD, cycle 1, 6 patients) was 0 n. The “Neutropenia, NCICTCAE Grade 2” value ([1]; 225 mg QD, cycle 1, 6 patients) was 0 n, the “Neutropenia, NCICTCAE Grade 3” value ([1]; 225 mg QD, cycle 1, 6 patients) was 2 n and the “Neutropenia, NCICTCAE Grade 4” value ([1]; 225 mg QD, cycle 1, 6 patients) was 1 n. For the same molecule, the “Treatment-related Alopecia, All grades” value [1, 3] was 2 (6) n (%), the “Treatment-related Alopecia, Grade 3” value [1, 3] was 0 n (%) and the “Treatment-related Anorexia, All grades” value [1, 3] was 3 (9) n (%). The “Treatment-related Anorexia, Grade 3” value [1, 3] was 0 n (%), the “Treatment-related Chills, All grades” value [1, 3] was 2 (6) n (%) and the “Treatment-related Chills, Grade 3” value [1, 3] was 0 n (%). For the same molecule, the “Treatment-related Constipation, All grades” value [1, 3] was 3 (9) n (%), the “Treatment-related Constipation, Grade 3” value [1, 3] was 0 n (%) and the “Treatment-related Cough, All grades” value [1, 3] was 2 (6) n (%). The “Treatment-related Cough, Grade 3” value [1, 3] was 0 n (%), the “Treatment-related Diarrhoea, All grades” value [1, 3] was 10 (30) n (%) and the “Treatment-related Diarrhoea, Grade 3” value [1, 3] was 0 n (%). For the same molecule, the “Treatment-related Dyspnea, All grades” value [1, 3] was 1 (3) n (%), the “Treatment-related Dyspnea, Grade 3” value [1, 3] was 0 n (%) and the “Treatment-related Epistaxis, All grades” value [1, 3] was 4 (12) n (%). The “Treatment-related Epistaxis, Grade 3” value [1, 3] was 0 n (%), the “Treatment-related Fatigue, All grades” value [1, 3] was 10 (30) n (%) and the “Treatment-related Fatigue, Grade 3” value [1, 3] was 1 (3) n (%). For the same molecule, the “Treatment-related Flatulence, All grades” value [1, 3] was 3 (9) n (%), the “Treatment-related Flatulence, Grade 3” value [1, 3] was 0 n (%) and the “Treatment-related Mucosal inflammation, All grades” value [1, 3] was 3 (9) n (%). For the same molecule, the “Treatment-related Mucosal inflammation, Grade 3” value [1, 3] was 0 n (%), the “Treatment-related Muscular weakness, All grades” value [1, 3] was 2 (6) n (%) and the “Treatment-related Muscular weakness, Grade 3” value [1, 3] was 0 n (%). The “Treatment-related Nausea, All grades” value [1, 3] was 5 (15) n (%), the “Treatment-related Nausea, Grade 3” value [1, 3] was 1 (3) n (%) and the “Treatment-related Peripheral oedema, All grades” value [1, 3] was 2 (6) n (%). The “Treatment-related Peripheral oedema, Grade 3” value [1, 3] was 0 n (%), the “Treatment-related Pyrexia, All grades” value [1, 3] was 2 (6) n (%) and the “Treatment-related Pyrexia, Grade 3” value [1, 3] was 0 n (%). The “Treatment-related Rash, All grades” value [1, 3] was 2 (6) n (%), the “Treatment-related Rash, Grade 3” value [1, 3] was 0 n (%) and the “Treatment-related Vomiting, All grades” value [1, 3] was 2 (6) n (%). For the same molecule, the “Treatment-related Vomiting, Grade 3” value [1, 3] was 1 (3) n (%), the “Treatment-related Alopecia, All grades” value [1, 4] was 0 n (%) and the “Treatment-related Alopecia, Grade 3” value [1, 4] was 0 n (%). The “Treatment-related Anorexia, All grades” value [1, 4] was 1 (3) n (%), the “Treatment-related Anorexia, Grade 3” value [1, 4] was 0 n (%) and the “Treatment-related Chills, All grades” value [1, 4] was 0 n (%). For the same molecule, the “Treatment-related Chills, Grade 3” value [1, 4] was 0 n (%), the “Treatment-related Constipation, All grades” value [1, 4] was 4 (12) n (%) and the “Treatment-related Constipation, Grade 3” value [1, 4] was 0 n (%). The “Treatment-related Cough, All grades” value [1, 4] was 0 n (%) and the “Treatment-related Cough, Grade 3” value [1, 4] was 0 n (%).
